Experimental data published in patent US20230265438A1, “NUCLEIC ACIDS FOR INHIBITING EXPRESSION OF CNNM4 IN A CELL” (ASOCIACIÓN CENTRO DE INVESTIGACIÓN COOPERATIVA EN …, priority 2020, published 2023).
{VP} = (E)-vinylphosphonate; m = 2'-O-methyl; f = 2'-fluoro

Key:
[1] = test system: CNNM4 mRNA; assay: CNNM4 mRNA in liver of wild-type mice after single subcutaneous dose (Examples 12-14); type: in vivo, mouse; conditions: wild-type C57BL/6 mice
Protocol: (§1) Five- to seven-week old male C57BL/6 mice were treated with a single dose of 1 or 5 mg siRNA conjugate per kg body weight by subcutaneous injection. Control groups received a subcutaneous injection with the vehicle PBS. Two weeks after the treatment, liver samples were collected from all mice and snap frozen. RNA was extracted from liver samples and CNNM4 and Actin mRNA levels were determined by Taqman qRT-PCR. Values obtained for CNNM4 mRNA were normalized to values generated for the housekeeping gene Actin and related to mean of untreated sample (ut) set at 1-fold target gene expression. Each bar represents mean value from 6 animals +/-SD.
Five- to seven-week old male C57BL/6 mice were treated with a single dose of 0.3 or 1 mg siRNA conjugate per kg body weight by subcutaneous injection. Control groups received a subcutaneous injection with the vehicle PBS. Two weeks after the treatment, liver samples were collected from all mice and snap frozen. RNA was extracted from liver samples and CNNM4 and Actin mRNA levels were determined by Taqman qRT-PCR. Values obtained for CNNM4 mRNA were normalized to values generated for the housekeeping gene Actin and related to mean of untreated sample (ut) set at 1-fold target gene expression. Each bar represents mean value from 6 animals +/-SD.
as §1, with “1” for “1 or 5”, “Five” for “Two”, “PBS treated cohort (PBS)” for “untreated sample (ut)”

[2] = test system: CNNM4 mRNA; assay: CNNM4 mRNA in liver of DIO-NASH mice (Example 24); type: in vivo, mouse; conditions: 1 mg/kg or 5 mg/kg s.c. at 4, 8 and 12 weeks, liver 4 weeks after last treatment, FIG. 30
Protocol: 5-week old C57BL/6 male mice were maintained on a DIO-NASH diet for about 32 weeks and randomized based on pre-liver biopsy fibrosis and steatosis score. Only animals with fibrosis score of ≥ 1 and steatosis score of ≥ 2 were included in the study. Animals were then maintained on DIO-NASH diet for another 16 weeks. At the 4 week, 8 week, and 12 week time points after the pre liver biopsy mice were treated with 1 mg/kg or 5 mg/kg EU422, respectively or with the vehicle PBS by subcutaneous injection. 4 weeks after the last treatment, liver samples were collected from all mice and snap frozen. RNA was extracted from liver samples and CNNM4 and HPRT mRNA levels were determined by Taqman qRT-PCR. Values obtained for CNNM4 mRNA were normalized to values generated for the house keeping gene HPRT and related to mean of untreated sample (ut) set at 1-fold target gene expression. Each bar represents mean value from 15 animals +/-SD.

## EU422: CNNM4 siRNA conjugate, duplex EU422A/EU422B; consists of SEQ ID NO: 461 and SEQ ID NO: 462 (chain 1 UGACAAAAGACACAAGAGU; chain 2 ACUCUUGUGUCUUUUGUCA; chain 1: sugars from the 5' end mfmfmfmfmfmfmfmfmfm, 5' {VP}, backbone not given here; chain 2: sugars from the 5' end m6 f3 m10, backbone not given here; undefined (ps2) end linkages, 5' conjugate ST23/ST41 on second strand, further chemistry not fully specified)
[1]; five weeks after single dose of 1 mg/kg s.c., FIG. 20
  CNNM4 mRNA levels in the liver: reduction of CNNM4 mRNA levels
[1]; two weeks after single dose of 0.3 or 1 mg/kg s.c., FIG. 19
  CNNM4 mRNA levels in the liver: reduction of CNNM4 mRNA levels
[2]
  CNNM4 mRNA levels in the liver: dose dependent reduction of CNNM4 mRNA levels
